From patent US8372890B2, “Functional food containing sodium tricaffeoylaldarate” (Zenyaku Kogyo Kabushikikaisha, priority 2006, dated 2013)

Experiments:
[1] = molecular target: α-amylase; test: Glycosidase inhibitory activity test, amylase; assay type: biochemical
Excerpt: (§1) 8) Glycosidase Inhibitory Activity Test
(§2) Determined via a method whereby α-amylase, maltase, and sucrase inhibitory activities were all disclosed in the abovementioned report (Non-Patent Document 1).

[2] = test system: Lipid Peroxidation (brain homogenate auto-oxidation); test: Brain homogenate auto-oxidation test (lipid peroxide production inhibition, thiobarbituric acid method); assay type: biochemical; conditions: for IC50: value in parentheses, read-out: Inhibitory Activities on Lipid Peroxidation IC50
Excerpt: [formula] Moreover, f: Purity of reference standard (%)/100 6) Brain Homogenate Auto-oxidation Test
Determined via a thiobarbituric acid method that was based on the method of Ohkawa, et al. (Reference Document 2)

[3] = 1,1-Diphenyl-2-picrylhydrazyl (DPPH) radical scavenging test; conditions: for EC50: value in parentheses, read-out: DPPH Radical Scavenging Activities EC50
Excerpt: 7) 1,1-Diphenyl-2-picrylhydrazyl (DPPH) Radical Scavenging Test
Determined based on the method of Blois, et al. (Reference Document 3)

[4] = molecular target: sucrase (Homo sapiens, UniProt P14410); test: Glycosidase inhibitory activity test, sucrase; assay type: biochemical
Excerpt: as §1, §2

[5] = test system: blood glucose level after maltose-loading; test: Hyperglycemic inhibitory action after maltose-loading in rat; assay type: in vivo, SD (IGS) rat; conditions: for ΔAUC of blood glucose / ΔCmax of blood glucose: maltose 1 g/kg gavage
Excerpt: • 1) Test Substance: With regard to TCAA, Yacon hot water extract was passed through an HP-20 column chromatograph, then eluted with water, and finally eluted with 50% methanol to obtain a polyphenol fraction. This fraction was separated by being passed through a Sephadex LH-20, and eluted with 40% methanol/water, so that the total amount of TCAA contained therein was recovered during confirmation of TCAA with HPLC. Then, the rough TCAA fraction was passed through a HW-40 column chromatograph, separated with 40% methanol/water during confirmation of TCAA with HPLC in a similar manner, and components other than TCAA were removed. […] Moreover, the maltose employed was purchased from Wako Pure Chemical Industries, Ltd. • 2) Animals: One group of five SD (IGS) 7 week old male rats was employed. 2. Experimental Method • 1) Configuration of the Treatment Group • (1) Control Group (Maltose Only) • (2) Maltose+TCAA (600 mg/kg×2) • (3) Maltose+TCAA (300 mg/kg×2) • (4) Maltose+TCAA (150 mg/kg×2) • 2) Preparation of Test Substance
Maltose was weighed to an amount of 1.5 g, dissolved in 15 ml of distilled water, and administered by gavage at a dosage of 1 g/10 ml/kg. Then TCAA was administered in two doses, a first dosage in which it was administered in a maltose solution, and then a second dosage in which it was dissolved in distilled water, with both dosages being at ratios of 150 mg/10 ml, 300 mg/10 ml, and 600 mg/10 ml, respectively, and administration thereof by gavage at a dosage of 10 ml/kg.
After blood samples were collected from rats that fasted for 17 hours prior to administration of the test substance (0 time), the test substance was administered. Fifteen minutes later the second dosage was administered, with blood samples being taken soon thereafter (specifically, 15 minutes later), 30 minutes thereafter, 45 minutes thereafter, 60 minutes thereafter, 90 minutes thereafter, and 120 minutes thereafter, respectively, and then blood glucose levels being measured with a Glucocard (Aventis Pharma, Limited).
When measuring blood glucose levels at the times that each of the samples were collected, the change in blood glucose (A) was calculated by subtracting the blood glucose level prior to the administration (0 time) from the blood glucose levels after the administration of the test substance, and determining the maximum serum concentration (ΔCMAX) and area under the blood glucose curve (ΔAUC).
The blood glucose values obtained by the present experiment were averaged, the standard error of the mean was calculated, and a two-group comparison was made with the control group. The statistical test method was via the Bartlett method, with the variance of the measured values being statistically verified within a 95% confidence limit, and the Student's t-test only being conducted in cases of equal variance, to determine that p<0.05 was a statistically significant change.

[6] = molecular target: maltase; test: Glycosidase inhibitory activity test, maltase; assay type: biochemical
Excerpt: as §1, §2

[7] = comparative molar concentrations
[8] = TCAA 150 mg/kg × 2, mean ± SE, n = 5
[9] = TCAA 300 mg/kg × 2, mean ± SE, n = 5

Sequence of sucrase (P14410 whole entry, species assumed): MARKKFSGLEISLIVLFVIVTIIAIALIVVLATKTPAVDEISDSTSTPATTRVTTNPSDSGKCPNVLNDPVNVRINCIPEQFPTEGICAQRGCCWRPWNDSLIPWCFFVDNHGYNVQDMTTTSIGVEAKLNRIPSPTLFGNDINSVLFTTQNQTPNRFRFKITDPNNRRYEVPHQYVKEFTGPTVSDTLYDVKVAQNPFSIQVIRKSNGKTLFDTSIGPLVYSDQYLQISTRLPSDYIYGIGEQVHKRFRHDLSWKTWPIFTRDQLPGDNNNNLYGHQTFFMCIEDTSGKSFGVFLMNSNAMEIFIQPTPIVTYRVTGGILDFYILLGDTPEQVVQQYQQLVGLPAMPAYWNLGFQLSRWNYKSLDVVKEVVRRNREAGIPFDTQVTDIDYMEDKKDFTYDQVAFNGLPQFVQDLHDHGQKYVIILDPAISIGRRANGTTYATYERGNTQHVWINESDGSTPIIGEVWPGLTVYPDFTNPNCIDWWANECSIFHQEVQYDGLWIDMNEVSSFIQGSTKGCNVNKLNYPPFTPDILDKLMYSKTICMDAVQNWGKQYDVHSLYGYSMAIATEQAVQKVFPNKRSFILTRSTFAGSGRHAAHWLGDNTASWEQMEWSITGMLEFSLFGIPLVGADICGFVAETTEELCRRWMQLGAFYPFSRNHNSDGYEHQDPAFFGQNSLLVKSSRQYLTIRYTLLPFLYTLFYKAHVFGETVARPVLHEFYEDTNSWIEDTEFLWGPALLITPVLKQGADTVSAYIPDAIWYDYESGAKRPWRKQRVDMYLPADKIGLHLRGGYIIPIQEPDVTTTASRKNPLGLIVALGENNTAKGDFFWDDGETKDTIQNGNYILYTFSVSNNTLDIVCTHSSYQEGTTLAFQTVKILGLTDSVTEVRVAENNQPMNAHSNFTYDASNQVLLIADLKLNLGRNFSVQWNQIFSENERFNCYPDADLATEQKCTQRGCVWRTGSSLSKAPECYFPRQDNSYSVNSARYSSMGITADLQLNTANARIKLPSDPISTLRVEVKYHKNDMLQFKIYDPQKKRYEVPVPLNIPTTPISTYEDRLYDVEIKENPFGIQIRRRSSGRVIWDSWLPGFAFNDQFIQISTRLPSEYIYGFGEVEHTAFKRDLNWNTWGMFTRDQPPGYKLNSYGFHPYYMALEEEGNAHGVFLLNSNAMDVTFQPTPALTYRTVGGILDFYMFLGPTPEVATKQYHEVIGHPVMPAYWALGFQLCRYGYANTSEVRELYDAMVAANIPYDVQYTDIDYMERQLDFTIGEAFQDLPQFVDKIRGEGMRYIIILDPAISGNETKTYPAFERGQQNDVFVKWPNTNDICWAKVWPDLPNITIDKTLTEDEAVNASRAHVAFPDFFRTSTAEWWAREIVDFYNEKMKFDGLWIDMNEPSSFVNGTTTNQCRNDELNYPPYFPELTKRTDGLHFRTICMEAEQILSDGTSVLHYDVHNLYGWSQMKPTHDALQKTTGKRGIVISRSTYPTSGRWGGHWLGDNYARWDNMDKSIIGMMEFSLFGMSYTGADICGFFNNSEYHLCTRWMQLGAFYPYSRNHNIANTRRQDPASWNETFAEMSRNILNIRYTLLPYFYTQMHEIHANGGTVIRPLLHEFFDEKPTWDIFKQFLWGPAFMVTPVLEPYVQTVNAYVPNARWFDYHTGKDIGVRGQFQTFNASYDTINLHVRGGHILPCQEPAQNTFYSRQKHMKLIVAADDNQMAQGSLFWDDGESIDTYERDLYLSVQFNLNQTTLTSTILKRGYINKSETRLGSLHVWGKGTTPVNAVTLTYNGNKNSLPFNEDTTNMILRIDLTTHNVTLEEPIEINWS

Inhibitory Activities on Lipid Peroxidation IC50 [2] | IC50 [2] | DPPH Radical Scavenging Activities EC50 [3] | EC50 [3] | Compound | other results
1.48 µg/mL | 2.87 µM | 0.91 µg/mL | 1.76 µM | O=C(/C=C/c1ccc(O)c(O)c1)O[C@@H]1[C@H](O)C[C@@](O)(C(=O)O)C[C@H]1OC(=O)/C=C/c1ccc(O)c(O)c1 [3,4-DCQA, 3,4-dicaffeoylquinic acid] | 
2.18 µg/mL | 4.23 µM | 0.87 µg/mL | 1.69 µM | O=C(/C=C/c1ccc(O)c(O)c1)O[C@@H]1C[C@](O)(C(=O)O)C[C@@H](OC(=O)/C=C/c2ccc(O)c(O)c2)[C@H]1O [3,5-DCQA] | 
9.97 µg/mL | 55.3 µM | 4.39 µg/mL | 24.3 µM | O=C(O)/C=C/c1ccc(O)c(O)c1 [caffeic acid] | 
13.21 µg/mL | 37.3 µM |  |  | O=C(/C=C/c1ccc(O)c(O)c1)O[C@@H]1C[C@](O)(C(=O)O)C[C@@H](O)[C@H]1O [chlorogenic acid] | 
0.56 µg/mL | 1.85 µM | 0.51 µg/mL | 1.69 µM | O=c1oc2c(O)c(O)cc3c(=O)oc4c(O)c(O)cc1c4c23 [ellagic acid] | 
71.24 µg/mL | 166 µM | 5.65 µg/mL | 13.1 µM | Cc1c(C)c2c(c(C)c1O)CC[C@@](C)(CCC[C@H](C)CCC[C@H](C)CCCC(C)C)O2 [α-tocopherol] | 
13.69 µg/mL | 47.2 µM | 1.56 µg/mL | 5.37 µM | (±)-catechin | 

Compound | Inhibitory Activities on Lipid Peroxidation IC50 [2] | IC50 [2] | DPPH Radical Scavenging Activities EC50 [3] | EC50 [3] | other results
2,3,5-tricaffeoylaltraric acid, or 2,4,5-tricaffeoylaltraric acid [TCAA] | 0.49 µg/mL | 0.7 µM | 0.69 µg/mL | 0.99 µM | amylase inhibitory activity IC50 [1]: 420 µg/mL; lipid peroxide production inhibitory activity, times greater than that of (±)-catechin [2, 7]: 68 times; lipid peroxide production inhibitory activity, times greater than that of ellagic acid [2, 7]: 2.5 times; sucrase inhibitory activity IC50 [4]: > 1000 µg/mL; blood glucose 90 minute values compared to control group ([5]; 600 mg/kg TCAA group): obvious increase; increase in blood glucose via maltose-loading at 15 minutes ([5]; each TCAA dosage group (150, 300, 600 mg/kg × 2) vs control, p<0.01): significantly inhibited; ΔAUC of blood glucose [5, 8]: 5834 ± 484 mg·min/dL; ΔCmax of blood glucose [5, 8]: 86 ± 9 mg/dL; ΔAUC of blood glucose [5, 9]: 5456 ± 249 mg·min/dL; ΔCmax of blood glucose [5, 9]: 84 ± 5 mg/dL; ΔAUC of blood glucose ([5]; TCAA 600 mg/kg × 2, mean ± SE, n = 5): 5495 ± 300 mg·min/dL; ΔCmax of blood glucose ([5]; TCAA 600 mg/kg × 2, mean ± SE, n = 5, p < 0.05 vs control): 73 ± 3 mg/dL; maltase inhibitory activity IC50 ([6]; TCAA isolated in Example 1): 49 µg/mL; maltase inhibitory activity IC50 ([6]; TCAA test substance of Example 4, purity 91%): 61 µg/mL; maltase inhibitory activity compared to an acarbose control ([6]; fraction of acarbose activity): 1/19
O=C(/C=C/c1ccc(O)c(O)c1)O[C@H]1[C@H](O)C[C@](O)(C(=O)O)C[C@H]1OC(=O)/C=C/c1ccc(O)c(O)c1 [4,5-DCQA] | 3.38 µg/mL | 6.55 µM | 0.89 µg/mL | 1.72 µM | 
